Common to all, as to type: in vivo
Assay [1] has as its system Psylla piri. The experiment in a line: Example 6: pear trees treated against Psylla piri. As to conditions: larvae on shoots, % a.i.: amitraz 0.05, I-9, I-2, I-1 0.096. As for the experimental part: In three replications, in each case 4 about 4-year-old pear trees of the cultivar “Williams Christ” are treated against Psylla piri. Two applications are carried out at an interval of 11 days using a motor-operated barrow-mounted sprayer. Here, the active compounds Example (I-9) (240 SC), Example (I-2) (240 SC) and Example (I-1) (240 SC) are tested against the commercial standard Amitraz (200 EC) at the stated amounts. The application rate is 2000 l of water/ha.
Evaluation is carried out 3, 10 and 20 days after the last treatment by rating the kill of the larvae in percent on the shoots.

The subject of assay [2] is Pseudococcus citri. Description: Example 26: citrus trees treated against Pseudococcus citri. As to conditions: 62 days after treatment, larvae on fruits, g a.i./ha/m crown height: Dursban 960, I-4 72. As for the experimental part: In three replications, in plots of a size of about 20 m^2, citrus trees of the cultivar “Oro Nules” are treated against Pseudococcus citri. The application is carried out using a high-pressure sprayer. Here, the active compound Example (I-4) (240 SC), in a tank mix with 0.1% a.i. of rapeseed oil methyl ester (500 EW), is tested against the commercial standard Dursban (480 EC), at the stated application rates. The application rate is 2500 l of water/ha.
Evaluation is carried out 62 days after the treatment by rating the kill of the larvae on the fruits.

The test system of assay [3] is Myzus persicae. Description: Example 50: tomatoes treated against Myzus persicae. Particulars: nymphs on leaves, g a.i./ha: acetamiprid 50, I-9 36, I-4 48. The protocol: In two replications, plots of a size of about 43 m^2 with tomatoes of the cultivar “Yaqui” are treated against Myzus persicae. The application is carried out using a motor-operated knapsack sprayer. Here, the active compounds Example (I-9) (240 SC) and Example (I-4) (240 SC), in a tank mix with 0.1% a.i. of rapeseed oil methyl ester (500 EW), and the standard acetamiprid (20 WP) are applied at the stated application rates. The application rate is 208 l of water/ha.
Evaluation is carried out 3 and 10 days after the treatment by rating the kill of the nymphs on the leaves.

Assay [4] relates to Bemisia tabaci. The experiment in a line: Example 38: melons treated against Bemisia tabaci. Particulars: nymphs on leaves, g a.i./ha: Confidor 100, I-4 72. The protocol:
In three replications, plots of a size of about 7.5 m^2 with melons of the cultivar “Piel DE Sapo” are treated against Bemisia tabaci. The application is carried out with a motor-operated knapsack sprayer. Here, the active compound Example (I-4) (240 SC), in a tank mix with 0.1% of a.i. of rapeseed oil methyl ester (500 EW), and the commercial standard Confidor (200 SL) are applied at the stated application rates. Two applications are carried out, at an interval of 7 days and at an application rate of 233 l of water/ha.
Evaluation is carried out 7 and 15 days after the second treatment by rating the kill of the animals (nymphs) on the leaves.

Assay [5] deals with Selenaspidius articulatus. Description: Example 19: orange trees treated against Selenaspidius articulatus. As to conditions: 100 d after treatment, on leaves, % a.i.: methidathion 0.05, I-9 0.0288, I-4 0.0144. The protocol:
In three replications, 3-year-old orange trees of the cultivar “Pera natal” are treated against Selenaspidius articulatus. The application is carried out using a motor-operated knapsack sprayer. Here, the active compounds Example (I-9) (240 SC) and Example (I-4) (240 SC) at the stated application rate are tested against the standard methidathion (400 EC) in the stated amounts, applied once. The application rate is 3.3 l of water per tree.
Evaluation is carried out 100 days after the treatment by rating the kill on the leaves.

Assay [6] concerns Orthezia praelonga. The experiment in a line: Example 25: orange trees treated against Orthezia praelonga. Particulars: population on leaves, % a.i.: methidathion 0.05, I-4 0.0144, I-9 0.0144. As for the experimental part: In two replications, two about 7-year-old orange trees of the cultivar “Pera Rio” are treated against Orthezia praelonga. Here, the active compounds Example (I-4) (240 SC) and Example (I-9) (240 SC), in a tank mix with 0.1% a.i. of Renex, are tested against the commercial standard Methidathion (400 EC), at the stated application rates. The application is carried out using a knapsack sprayer operated with pressurized air. Evaluation is carried out 6 and 16 days after the treatment by rating the kill of the population on the leaves.

Assay [7] concerns Pseudaulacaspis pentagons. The experiment in a line: Example 22: peach trees treated against Pseudaulacaspis pentagons. As to conditions: crawlers on shoots, g a.i./ha/m crown height: Esteem 98, I-4 120. As for the experimental part: In ten replications, on about 46 m^2, peach trees are treated against Pseudaulacaspis pentagons. Two applications are carried out at an interval of 57 days using a sprayer operated with pressurized air. Here, the active compound Example (I-4) (240 SC) in a tank mix with 0.2% of Dynamic (910 XL) is applied at the stated application rate and the commercial standard Esteem (35 WP) is applied at the stated application rate. The application rate is 935 l of water/ha.
Evaluation is carried out 35 and 79 days after the last treatment by rating the kill of the crawlers on the shoots.

The test system of assay [8] is Macrosiphum euphorbiae. The experiment in a line: Example 55: strawberry plants treated against Macrosiphum euphorbiae. Particulars: nymphs on strawberry plants, g a.i./ha: Calypso 120, I-4 75. The protocol:
In four replications, plots of a size of about 3 m^2 with 3-week-old strawberry plants are treated against Macrosiphum euphorbiae and Rhodobium porosum. The application is carried out using a knapsack sprayer operated with pressurized air. Here, the active compound Example (I-4) (150 OD) and the commercial standard Calypso (480 SC) are tested at the stated application rates. Here, the standard is sprayed as a tank mix with 0.03% of Motto (adjuvant). The application rate is 500 l of water/ha.
Evaluation is carried out 7 and 14 days after the second treatment by rating the kill of the nymphs on the plants.

In the case of `CCOC(=O)OC1=C(c2cc(C)ccc2Br)C(=O)NC12CCC(OC)CC2` (stereo not drawn) [Example (I-2)], in assay [1] (3 d after last of two treatments), the “Kill (%) 3 d” value is reported as 96.7%. Moreover, in assay [1] (10 d after last of two treatments), the “Kill (%) 10 d” value was 99%. The “Kill (%) 20 d” value in assay [1] (20 d after last of two treatments) stood at 97.9%.
With `CCOC(=O)OC1=C(c2cc(C)ccc2C)C(=O)NC12CCC(OC)CC2` (stereo not drawn) [Example (I-4)], the “Kill (%) 62 days” value in assay [2] is 99%. For the same compound, the “Kill (%) 3 d” value in assay [3] (3 d after treatment) came out at 92.6%. Also, the “Kill (%) 10 d” value in assay [3] (10 d after treatment) is on record as 95.9%. Moreover, in assay [4] (7 d after second treatment), the “Kill (%) 7 d” value stood at 85.3%. Further, in assay [4] (15 d after second treatment), the “Kill (%) 15 d” value turned out to be 95.5%. Further, in assay [5], the “Kill (%) 100 d” value was 70%. Besides, the “Kill (%) 6 d” value in assay [6] (6 d after treatment) is on record as 94%. The “Kill (%) 16 d” value in assay [6] (16 d after treatment) amounted to 76%. Further, in assay [7] (35 d after last of two treatments), the “Kill (%) 35 d” value is reported as 90%. In addition, the “Kill (%) 79 d” value in assay [7] (79 d after last of two treatments) is on record as 87%. For the same compound, in assay [8] (7 d after second treatment), the “Macrosiphum euphorbiae Kill (%) 7 d” value is given as 62.2%. Besides, the “Macrosiphum euphorbiae Kill (%) 14 d” value in assay [8] (14 d after second treatment) is 94%.

The values above are taken from patent US20090012152A1, “Use of Tetramic Acid Derivatives for Controlling Insects from the Genus of the Plane Lice (Sternorrhyncha)” (Bayer CropScience Aktiengesellschaft, priority 2005, published 2009).
